# Test results: patent US20020013362A1 (priority 2000, published 2002)
# Tests used:
# metastatic melanoma = experiment: Phase II M D Anderson trial of paclitaxel Q4Dx3 every 21 days, tumor responses; assay type: in vivo, human
# Source text: Cytokines and therapeutic agents which may be used include, for example, platinum compounds (e.g., spiroplatin, cisplatin, and carboplatin), thalidomide, methotrexate, adriamycin, mitomycin, ansamitocin, bleomycin, cytosine arabinoside, arabinosyl adenine, mercaptopolylysine, vincristine, busulfan, chlorambucil, melphalan (e.g., PAM, L-PAM or phenylalanine mustard), mercaptopurine, mitotane, carmustine, procarbazine hydrochloride dactinomycin (actinomycin D), daunorubicin hydrochloride, doxorubicin hydrochloride, taxol, mitomycin, plicamycin (mithramycin), aminoglutethimide, estramustine phosphate sodium, flutamide, leuprolide acetate, megestrol acetate, tamoxifen citrate, testolactone, trilostane, amsacrine (m-AMSA), asparaginase (L-asparaginase) Erwina asparaginase, etoposide (VP-16), interferon α-2a, interferon α-2b, teniposide (VM-26), vinblastine sulfate (VLB), vincristine sulfate, bleomycin, bleomycin sulfate, methotrexate, adriamycin, and arabinosyl; biological response modifiers such as muramyldipeptide, muramyltripeptide, microbial cell wall components, lymphokines (e.g., bacterial endotoxin such as lipopolysaccharide, macrophage activation factor), sub-units of bacteria (such as Mycobacteria, Corynebacteria), the synthetic dipeptide N-acetyl-muramyl-L-alanyl-D-isoglutamine; hormones such as growth hormone, melanocyte stimulating hormone, estradiol, beclomethasone dipropionate, betamethasone, betamethasone acetate and betamethasone sodium phosphate, vetamethasone disodium phosphate, vetamethasone sodium phosphate, cortisone acetate, dexamethasone, dexamethasone acetate, dexamethasone sodium phosphate, flunisolide, hydrocortisone, hydrocortisone acetate, hydrocortisone cypionate, hydrocortisone sodium phosphate, hydrocortisone sodium succinate, methylprednisolone, methylprednisolone acetate, methylprednisolone sodium succinate, paramethasone acetate, prednisolone, prednisolone acetate, prednisolone sodium phosphate, prednisolone tebutate, prednisone, triamcinolone, triamcinolone acetonide, triamcinolone diacetate, triamcinolone hexacetonide and fludrocortisone acetate; immunoadjuvants and cytokines may also be employed, including interleukins (e.g., IL-1, IL-2, IL-3, IL-6), leukemia inhibitory factor, interferons, such as INF-α, TGF-beta, erythropoietin, TNF, lymphotoxin, and thrombopoietin; thalidomide and/or other agents to inhibit the production and/or action of cytokine/growth factors such as M-α, IGF-1, EGF, TGF α, IL-1β, MGSA and bFGF in different cell types involved in tumor growth and/or angiogenesis of melanoma.
# [1] = test system: adult leukemia, solid tumors, and pediatric solid tumor patients; experiment: Earlier published trials of the Q4D paclitaxel schedule; assay type: in vivo, human; details: one patient with a recurrent large metastatic melanoma
# Source text: An added benefit to this regimen includes a reduction in myelosupression. To this end, we devised the Q4 day (Q4D)×3 every 21-day treatment schedule which has the added value of increasing the dose intensity during each 21-day treatment period beyond that of the once every 21-day schedule (Ainsworth S. K., and Helson, L., U.S. Pat. No. 5,696,153 issued Dec. 9, 1997). […] During these trials an anecdotal twelve-month partial response in a patient with a recurrent large metastatic melanoma was observed. […]
# patients with melanoma [2] = details: cited from earlier work
# patients with melanoma [3] = test system: patients with melanoma
# [4] = 17 patients, 90 mg/M^2 Q4 days x3
smiles,measurement,setting,value
CC(=O)O[C@H]1C(=O)[C@@]2(C)[C@H]([C@H](OC(=O)c3ccccc3)[C@]3(O)C[C@H](OC(=O)[C@H](O)[C@@H](NC(=O)c4ccccc4)c4ccccc4)C(C)=C1C3(C)C)[C@]1(OC(C)=O)CO[C@@H]1C[C@@H]2O [paclitaxel],tumor volume decrease,"metastatic melanoma; Patient #1, after another two courses (four in all)",83%
same,decrease in liver metastases volume,"metastatic melanoma; Patient #1, after two courses at 270 mg/M^2/course",41%
same,decrease in lung metastases,"metastatic melanoma; Patient #2, 270 mg/M^2/course",43%
same,"tumor control maintained, number of courses","metastatic melanoma; Patient #2, 270 mg/M^2/course",eight
same,decrease in tumor volume,"metastatic melanoma; Patient #3, scapular primary, after 4 courses at 270 mg/M^2/course",39%
same,decrease in tumor volume,"metastatic melanoma; Patient #4, right calf primary, after 4 courses at 270 mg/M^2/course",15%
same,decrease in tumor volume,"metastatic melanoma; Patient #5, right heel mass, after 2 courses at 270 Mg/M^2/course",12%
same,clinical response,"metastatic melanoma; Patient #6, during 4 courses at 270 mg/M^2/course",stable disease
same,clinical response,"metastatic melanoma; Patient #7, ciliochoroidal primary, no previous chemotherapy, after 3 courses at 270 mg/M^2/course",stable disease
same,clinical response,"metastatic melanoma; Patient #8, tumor of dorsum of right foot, previously treated, during two courses at 270 mg/M^2/course",stable disease
same,clinical response,"metastatic melanoma; Patient #9, non-choroidal melanoma, no prior chemotherapy, during 6 courses at 270 mg/M^2/course",stable disease
same,"objective responses, tumor reduction","metastatic melanoma; interim analysis, first 21 patients, 90 mg/M^2/dose Q4D, advanced heavily pretreated melanoma",greater than 50%
same,reductions in hepatic tumor masses,"metastatic melanoma; interim analysis, sustained over one month, additional two patients of first 21, 90 mg/M^2/dose Q4D",25-40%
same,duration of anecdotal partial response,[1],twelve
same,partial responses in patients with melanoma,"patients with melanoma [2]; 24-hour infusion, 250 mg/M^2 once every three weeks (Legha 1990)",3/25
same,paclitaxel dose a majority of the melanoma patients could tolerate,patients with melanoma [2]; Legha 1990,≤ 200 mg/M^2
same,objective responses,"patients with melanoma [2]; phase II, same schedule (24-hour infusion 250 mg/M^2 q3 weeks), 28 patients (Einzig 1988)",five
same,maximum tolerated dose intensity under previous regimens,patients with melanoma [2]; three 175 mg/M^2 doses given every 21 days (63-day period),525 mg/M^2
same,associated toxicity versus 200 mg/M^2 Q 21-day schedule,"patients with melanoma [3]; 270 mg/M^2 per 21 days, Q4D schedule",significantly less
same,Grade 3 abdominal pain (sufficient to interfere with function),patients with melanoma [3]; [4],3 patients
same,Grade 3 anemia (between 6.5-7.9 grams/100 ml blood),patients with melanoma [3]; [4],2 patients
same,Grade 3 diarrhea (over 7-9 stools/day),patients with melanoma [3]; [4],2 patients
same,Grade 3 edema (>20% weight gain),patients with melanoma [3]; [4],1 patient
same,Grade 3 fatigue (objective weakness with impairment of function),patients with melanoma [3]; [4],4 patients
same,Grade 3 granulocytopenia (between 0.5-0.9x10^3/mm^3),patients with melanoma [3]; [4],6 patients
same,Grade 3 increased alkaline phosphatase levels (between 5.1-20xN),patients with melanoma [3]; [4],2 patients
same,"Grade 3 toxicity, number of patients",patients with melanoma [3]; [4],11 patients
same,"Grade 3 toxicity, number of times",patients with melanoma [3]; [4],21 times
same,Grade 4 BUN increase (greater than 10 times normal values),patients with melanoma [3]; [4],1 patient
same,Grade 4 granulocytopenia (less than 0.5x10^3/mm^3),patients with melanoma [3]; [4],4 patients
same,Grade 4 leukopenia (less than 1.0x10^3/mm^3),patients with melanoma [3]; [4],2 patients
same,"Grade 4 toxicity, number of patients",patients with melanoma [3]; [4],3 patients
same,major side effect,"patients with melanoma [3]; Patient #2, eight courses at 270 mg/M^2/course",paresthesia
